From patent publication US9296753B2, “Crystalline forms of a Bruton's tyrosine kinase inhibitor” (Pharmacyclics LLC, priority 2012, dated 2016)
In brackets after ≈: the same amount, converted by molar mass. Like-named read-outs stand apart in the source and are kept apart here.

Key:
[1] = Thermodynamic aqueous solubility; assay type: physicochemical; conditions: water, 25 °C, thermodynamic from solid
Experimental: The suspension was equilibrated at 25° C. for 24 hours then the pH was measured. The suspension was then filtered through a glass fibre C filter. The filtrate was then diluted by an appropriate factor e.g. 101. Quantitation was by HPLC with reference to a standard solution of approximately 0.25 mg/ml in DMSO. Different volumes of the standard, diluted and undiluted sample solutions were injected. The solubility was calculated using the peak areas determined by integration of the peak found at the same retention time as the principal peak in the standard injection.
Analysis was performed on an Agilent HP1100 series system equipped with a diode array detector and using ChemStation software vB.02.01-SR1.

[2] = for mass change (GVS): between 0-90% RH
Experimental: Sorption isotherms were obtained using a SMS DVS Intrinsic moisture sorption analyser, controlled by DVS Intrinsic Control software v1.0.0.30. The sample temperature was maintained at 25° C. by the instrument controls. The humidity was controlled by mixing streams of dry and wet nitrogen, with a total flow rate of 200 ml/min. […] The weight change, (mass relaxation) of the sample as a function of % RH was constantly monitored by the microbalance (accuracy±0.005 mg). Typically 5-20 mg of sample was placed in a tared mesh stainless steel basket under ambient conditions. The sample was loaded and unloaded at 40% RH and 25° C. (typical room conditions). A moisture sorption isotherm was performed as outlined below (2 scans giving 1 complete cycle). The standard isotherm was performed at 25° C. at 10% RH intervals over a 0-90% RH range. Data analysis was undertaken in Microsoft Excel using DVS Analysis Suite v6.0.0.7. The sample was recovered after completion of the isotherm and re-analysed by XRPD.

Row | solubility at 24 h ([1]; pH 1.2, simulated gastric fluid, pH 1.2, 25° C., 24 hours, read-out: Conc. Found (solubility in aqueous solution)) [µg/mL] | solubility at 24 h ([1]; pH 1.64, simulated gastric fluid, pH 1.64, 25° C., 24 hours, read-out: Conc. Found (solubility in aqueous solution)) [µg/mL] | solubility at 24 h ([1]; pH 1.95, simulated gastric fluid, pH 1.95, 25° C., 24 hours, read-out: Conc. Found (solubility in aqueous solution)) [µg/mL] | solubility at 24 h ([1]; pH 3, aqueous buffer, pH 3, 25° C., 24 hours, read-out: Conc. Found (solubility in aqueous solution)) [µg/mL] | solubility at 24 h ([1]; pH 4, aqueous buffer, pH 4, 25° C., 24 hours, read-out: Conc. Found (solubility in aqueous solution)) [µg/mL] | solubility at 24 h ([1]; pH 5, aqueous buffer, pH 5, 25° C., 24 hours, read-out: Conc. Found (solubility in aqueous solution)) [µg/mL] | solubility at 24 h ([1]; pH 6, aqueous buffer, pH 6, 25° C., 24 hours, read-out: Conc. Found (solubility in aqueous solution)) [µg/mL] | solubility at 24 h ([1]; pH 8, aqueous buffer, pH 8, 25° C., 24 hours, read-out: Conc. Found (solubility in aqueous solution)) [µg/mL] | solubility at 24 h ([1]; pH 9, aqueous buffer, pH 9, 25° C., 24 hours, read-out: Conc. Found (solubility in aqueous solution)) [µg/mL] | solubility at 24 h ([1]; pH 10, aqueous buffer, pH 10, 25° C., 24 hours, read-out: Conc. Found (solubility in aqueous solution)) [µg/mL] | changes in the XRPD after GVS analysis [2] | mass change (GVS) ([2]; 25° C.) [% w/w] | solubility at 24 h ([1]; pH 7.42, water, pH of about 7.42, read-out: observed aqueous solubility) [µg/mL] | solubility thermodynamic at 24 h ([1]; pH 7.42, water, pH of 7.42) [µg/mL] | hysteresis (GVS) ([2]; 0-90% RH, 25° C.) | Structure (SMILES)
1 | 1300 (≈ 2950 µM) | 1070 (≈ 2430 µM) | 820 (≈ 1860 µM) | 100 (≈ 227 µM) | 22 (≈ 49.9 µM) | 17 (≈ 38.6 µM) | 15 (≈ 34.1 µM) | ~13 (≈ 29.5 µM) | 20 (≈ 45.4 µM) | 10 (≈ 22.7 µM) | No significant changes | < 0.3 | – | – | – | C=CC(=O)N1CCC[C@@H](n2nc(-c3ccc(Oc4ccccc4)cc3)c3c(N)ncnc32)C1 [Form A, 1-((R)-3-(4-amino-3-(4-phenoxyphenyl)-1H-pyrazolo[3,4-d]pyrimidin-1-yl)piperidin-1-yl)prop-2-en-1-one]
2 | – | – | – | – | – | – | – | – | – | – | No significant changes | 2.3 | ~9.6 (≈ 21.8 µM) | 9.6 (≈ 21.8 µM) | No hysteresis | C=CC(=O)N1CCC[C@@H](n2nc(-c3ccc(Oc4ccccc4)cc3)c3c(N)ncnc32)C1 [Form B, 1-((R)-3-(4-amino-3-(4-phenoxyphenyl)-1H-pyrazolo[3,4-d]pyrimidin-1-yl)piperidin-1-yl)prop-2-en-1-one]
